In US4372971A, “Heterocyclic prostaglandin type compounds, medicaments containing them and processes for the preparation and use of these heterocyclic compounds and medicaments” (priority 1980, dated 1983):
Where a name gives a salt, the structure may show the parent alone. Read-outs that look alike come from different tables or passages of the source. Each block holds one molecule with its values, some of them ahead of it.

Experiments:
[1] = system: ADP induced fall in platelet count; assay: ADP induced fall in platelet count in-vivo in narcotized rats; set-up: species or system rat; conditions: for Relative activity on the ADP induced fall in platelet count in-vivo: relative to 5,6-dihydroprostacyclin = 1.0; for Relative activity on the ADP induced fall in platelet count in-vivo / Maximum effect % Aggregation inhibition: narcotized rats; for Effect in relation to maximum effect, 10 min. after administration (aggregation inhibition) / Effect in relation to maximum effect, 30 min. after administration (aggregation inhibition): maximum effect = 100%
Experimental: (§1) Surprising for the compounds according to the invention is the relation of their blood platelet aggregation inhibiting effect to their blood pressure lowering activity.
Relative activity on the ADP induced fall
in platelet count in-vivo in narcotized rats (urethane
narcosis; intravenous administration of the test
compounds; the ED50 for 5,6-dihydroprostacyclin under
these experimental conditions is 0.0114 mg/kg):
Duration of the platelet aggregation inhibiting
effect in-vivo (measured with the model of ADP induced
fall in platelet count in narcotized rats on intra-
venous administration of the test compounds)

[2] = system: platelet aggregation versus blood pressure; assay: Index of selectivity: platelet aggregation inhibition versus blood pressure lowering (from Tables 1b and 1c); format: in vivo, rat; conditions: for Index of selectivity: in comparison to 5,6-dihydroprostacyclin, calculated from Tables 1b and 1c
From the text: as §1
in comparison to 5,6-dihydroprostacyclin (calculated

[3] = system: human thrombocytes; assay: Inhibition of arachidonic acid induced aggregation of human thrombocytes in-vitro; format: cell-based; conditions: for Relative activity against the aggregation of human thrombocytes induced by arachidonic acid: relative to 5,6-dihydroprostacyclin = 1.0
From the text: Relative activity against the aggregation
of human thrombocytes induced by arachidonic acid
in-vitro (the IC50, i.e., the concentration causing
under the experimental conditions in 50% of the cases
inhibition of the platelet aggregation for 5,6-di-

[4] = system: blood pressure; assay: Blood pressure lowering in conscious, spontaneous hypertensive rats; format: in vivo, rat; conditions: for Relative blood pressure lowering activity: relative to 5,6-dihydroprostacyclin = 1.0; for Effect in relation to maximum effect, 10 min. after administration (blood pressure lowering) / Effect in relation to maximum effect, 30 min. after administration (blood pressure lowering): maximum effect = 100%
From the text: as §1
Relative blood pressure lowering activity in
conscious, spontaneous hypertensive rats (measurement
via in-dwelling catheter; intravenous administration
of the test compounds; the ED20 for 5,6-dihydroprosta-
cyclin under these experimental conditions is 0.005
Duration of the blood pressure lowering effect
in conscious, spontaneous hypertensive rats (intra-

[5] = Chemical stability; format: physicochemical
[6] = system: isolated rat uterus; assay: Contraction inducing activity on isolated rat uterus; conditions: Prostaglandin F2α = 100%
From the text: (§2) Relative contraction inducing activities
(a) tests on isolated rat uterus

[7] = system: isolated rat colon; assay: Contraction inducing activity on isolated rat colon; conditions: Prostaglandin F2α = 100%
From the text: as §2
(b) tests on isolated rat colon

[8] = system: smooth muscle of the intestine and uterus; conditions: cited from earlier work; for Smooth muscle contraction: intestine and uterus
[9] = system: ADP induced fall in platelet count; conditions: background statement; also blood pressure lowering; cited from earlier work
[10] = system: platelet aggregation versus blood pressure; conditions: background; cited from earlier work
[11] = background; cited from earlier work
[12] = conscious spontaneous hypertensive rats, intravenous

Structure (SMILES): CCCCC[C@](C)(O)/C=C/[C@@H]1[C@H]2C/C(=C\c3cccc(C(=O)O)c3)O[C@H]2C[C@H]1O [1e)ii), Sodium salt of [(5E, 13E, 9α, 11α, 15S)-2,3,4-trinor-1,5-inter-m-phenylene-6,9-epoxy-11,15-dihydroxy-15-methyl]-prosta-5,13-dienoic acid]
Relative activity on the ADP induced fall in platelet count in-vivo ([1]; intravenous): 0.97 | Index of selectivity [2]: 69.3 | Relative activity against the aggregation of human thrombocytes induced by arachidonic acid ([3]; in-vitro): 0.25 | Relative blood pressure lowering activity [4, 12]: 0.014

Chemical stability [5]: chemically stable | IC50 ([3]; human thrombocytes, induced by arachidonic acid, in-vitro, read-out: IC50, inhibition of platelet aggregation): 180 nM
Structure (SMILES): CCCCCC(O)C=CC1C(O)CC2OC(CCCCC(=O)O)CC21 (stereo not shown) [5,6-Dihydroprostacyclin, 5,6-dihydroprostacyclin, reference compound]
Maximum effect % Aggregation inhibition ([1]; 0.1 mg/kg intravenous): 62.4% | Effect in relation to maximum effect, 10 min. after administration (aggregation inhibition) ([1]; 0.1 mg/kg intravenous): 33.8% | Effect in relation to maximum effect, 30 min. after administration (aggregation inhibition) ([1]; 0.1 mg/kg intravenous): 0% | Duration of aggregation inhibiting and blood pressure lowering activities ([1]; also blood pressure lowering): only for a short time | ED50, ADP induced fall in platelet count ([1]; narcotized rats (urethane), intravenous): 11.4 µg/kg | Relative activity on the ADP induced fall in platelet count in-vivo ([1]; intravenous): 1.0 | Relative contraction inducing activity [6]: 26.1% | Index of selectivity [2]: 1.0 | Relation of platelet aggregation inhibiting to blood pressure lowering dosage ([2]; rat, in vivo): produces both these effects at the same dosage range | Relative activity against the aggregation of human thrombocytes induced by arachidonic acid ([3]; in-vitro): 1.0 | Maximum effect % Blood pressure lowering ([4]; 0.0215 mg/kg intravenous): 28% | Effect in relation to maximum effect, 10 min. after administration (blood pressure lowering) ([4]; 0.0215 mg/kg intravenous): 7.1% | Effect in relation to maximum effect, 30 min. after administration (blood pressure lowering) ([4]; 0.0215 mg/kg intravenous): 0% | ED20, blood pressure lowering ([4]; conscious spontaneous hypertensive rats, intravenous, in-dwelling catheter): 5 µg/kg | Relative blood pressure lowering activity [4, 12]: 1.0 | Relative contraction inducing activity [7]: 23.8%

Structure (SMILES): CCCCC[C@](C)(O)/C=C/[C@@H]1[C@H]2C/C(=C/c3cccc(C(=O)O)c3)O[C@H]2C[C@H]1O [Example 1e)i), Sodium salt of [(5Z, 13E, 9α, 11α, 15S)-2,3,4-trinor-1,5-inter-m-phenylene-6,9-epoxy-11,15-dihydroxy-15-methyl]-prosta-5,13-dienoic acid]
Maximum effect % Aggregation inhibition ([1]; 1.0 mg/kg intravenous): 72.7% | Effect in relation to maximum effect, 10 min. after administration (aggregation inhibition) ([1]; 1.0 mg/kg intravenous): 69.3% | Effect in relation to maximum effect, 30 min. after administration (aggregation inhibition) ([1]; 1.0 mg/kg intravenous): 41.3% | Relative activity on the ADP induced fall in platelet count in-vivo ([1]; intravenous): 1.3 | Relative contraction inducing activity [6]: 0.58% | Index of selectivity [2]: 13.0 | Relative activity against the aggregation of human thrombocytes induced by arachidonic acid ([3]; in-vitro): 0.86 | Relative blood pressure lowering activity [4, 12]: 0.1 | Relative contraction inducing activity [7]: 0.002%

Structure (SMILES): CCCCC[C@H](O)/C=C/[C@@H]1[C@H]2C/C(=C\c3cccc(C(=O)O)c3)O[C@H]2C[C@H]1O [Example 2a, Sodium salt of [(5E, 13E, 9α, 11α, 15S)-2,3,4-trinor-1,5-inter-m-phenylene-6,9-epoxy-11,15-dihydroxy]-prosta-5,13-dienoic acid]
Relative activity against the aggregation of human thrombocytes induced by arachidonic acid ([3]; in-vitro): 1.2

Structure (SMILES): CCCCC[C@H](O)/C=C/[C@@H]1[C@H]2C/C(=C/c3cccc(C(=O)O)c3)O[C@H]2C[C@H]1O [Example 2b, Sodium salt of [(5Z, 13E, 9α, 11α,15S)-2,3,4-trinor-1,5-inter-m-phenylene-6,9-epoxy-11,15-dihydroxy]prosta-5,13-dienoic acid]
Relative activity against the aggregation of human thrombocytes induced by arachidonic acid ([3]; in-vitro): 1.2

Structure (SMILES): O=C(O)c1cccc(/C=C2/C[C@@H]3[C@@H](/C=C/[C@@H](O)C4CCCCC4)[C@H](O)C[C@@H]3O2)c1 [Example 3b, Sodium salt of [(5Z, 13E, 9α, 11α, 15S)-2,3,4-trinor-1,5-inter-m-phenylene-6,9-epoxy-11,15-dihydroxy-15-cyclohexyl-16,17,18,19,20-pentanor]-prosta-5,13-dienoic acid]
Maximum effect % Aggregation inhibition ([1]; 0.1 mg/kg intravenous): 72.5% | Effect in relation to maximum effect, 10 min. after administration (aggregation inhibition) ([1]; 0.1 mg/kg intravenous): 62.6% | Effect in relation to maximum effect, 30 min. after administration (aggregation inhibition) ([1]; 0.1 mg/kg intravenous): 66.3% | Activity compared with 5,6-dihydroprostacyclin, in-vivo ([1]; in-vivo (Table 1b)): several times more active than 5,6-dihydroprostacyclin | Relative activity on the ADP induced fall in platelet count in-vivo ([1]; intravenous): 5.0 | Index of selectivity [2]: 20.0 | Activity compared with 5,6-dihydroprostacyclin, in-vitro ([3]; in-vitro (Table 1a)): several times more active than 5,6-dihydroprostacyclin | Relative activity against the aggregation of human thrombocytes induced by arachidonic acid ([3]; in-vitro): 18.0 | Maximum effect % Blood pressure lowering ([4]; 0.1 mg/kg intravenous): 23% | Effect in relation to maximum effect, 10 min. after administration (blood pressure lowering) ([4]; 0.1 mg/kg intravenous): 87.0% | Effect in relation to maximum effect, 30 min. after administration (blood pressure lowering) ([4]; 0.1 mg/kg intravenous): 39.1% | Relative blood pressure lowering activity [4, 12]: 0.25

Structure (SMILES): CCCCC(CC)[C@H](O)/C=C/[C@@H]1[C@H]2C/C(=C/c3cccc(C(=O)O)c3)O[C@H]2C[C@H]1O (stereo partly drawn) [Example 4b, Sodium salt of [(5Z, 13E, 9α, 11α, 15S, 16RS)-2,3,4-trinor-1,5-inter-m-phenylene-6,9-epoxy-11,15-dihydroxy-16-ethyl]-prosta-5,13-dienoic acid]
Maximum effect % Aggregation inhibition ([1]; 1.0 mg/kg intravenous): 66.8% | Effect in relation to maximum effect, 10 min. after administration (aggregation inhibition) ([1]; 1.0 mg/kg intravenous): 45.4% | Effect in relation to maximum effect, 30 min. after administration (aggregation inhibition) ([1]; 1.0 mg/kg intravenous): 24.5% | Relative activity on the ADP induced fall in platelet count in-vivo ([1]; intravenous): 0.2 | Index of selectivity [2]: 16.7 | Relative activity against the aggregation of human thrombocytes induced by arachidonic acid ([3]; in-vitro): 0.31 | Maximum effect % Blood pressure lowering ([4]; 1.0 mg/kg intravenous): 22% | Effect in relation to maximum effect, 10 min. after administration (blood pressure lowering) ([4]; 1.0 mg/kg intravenous): 90.9% | Effect in relation to maximum effect, 30 min. after administration (blood pressure lowering) ([4]; 1.0 mg/kg intravenous): 68.2% | Relative blood pressure lowering activity [4, 12]: 0.012

Structure (SMILES): CCCCC[C@H](O)/C=C/[C@H]1[C@H](O)CC(=O)[C@@H]1C/C=C\CCCC(=O)O [PGE2]
Side effects in-vivo ([8]; administered in-vivo): may induce diarrhea and abortion | Smooth muscle contraction [8]: cause contraction of the smooth muscle of the intestine and uterus

Structure (SMILES): CCCCC[C@H](O)/C=C/[C@@H]1[C@H]2C/C(=C/CCCC(=O)O)O[C@H]2C[C@H]1O [Prostacyclin, prostacyclin]
Duration of aggregation inhibiting and blood pressure lowering activities [9]: only for a short time | Relation of platelet aggregation inhibiting to blood pressure lowering dosage [10]: exhibited at generally the same dosage level | Stability [11]: not as stable as would be desirable

Structure (SMILES): CCCCC[C@H](O)/C=C/[C@@H]1[C@@H](C/C=C\CCCC(=O)O)[C@@H](O)C[C@H]1O [Prostaglandin F2α]
Relative contraction inducing activity [6]: 100% | Side effects in-vivo [8]: may induce diarrhea and abortion | Smooth muscle contraction [8]: cause contraction of the smooth muscle of the intestine and uterus | Relative contraction inducing activity [7]: 100%
